In patent publication US9040545B2, “Heterocyclyl pyrazolopyrimidine analogues as selective JAK inhibitors” (Cellzome Limited, priority 2010, dated 2015):

Experiments:
Aurora B = biological target: T1, Aurora B (Homo sapiens, UniProt Q96GD4); experiment: Kinobeads assay, Aurora B; type: binding; details: for IC50: lysate of pervanadate-treated Jurkat cells, read-out: Inhibition values (IC50) Aur B
T1 construct: cell lysates from Jurkat cells (ATCC TIB-152) used; endogenous in cells; host or cells: Jurkat cells (ATCC TIB-152), treated with pervanadate
T1 sequence (Q96GD4 whole entry): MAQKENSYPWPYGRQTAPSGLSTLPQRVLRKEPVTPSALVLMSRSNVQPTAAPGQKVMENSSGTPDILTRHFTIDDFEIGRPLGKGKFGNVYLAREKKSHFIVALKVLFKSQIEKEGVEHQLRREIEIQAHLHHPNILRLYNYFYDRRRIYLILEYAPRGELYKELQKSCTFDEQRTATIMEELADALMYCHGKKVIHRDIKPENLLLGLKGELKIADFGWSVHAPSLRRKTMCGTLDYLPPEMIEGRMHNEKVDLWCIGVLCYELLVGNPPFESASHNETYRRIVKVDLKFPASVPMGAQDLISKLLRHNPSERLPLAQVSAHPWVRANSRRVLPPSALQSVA

JAK2 = biological target: T2, JAK2 (Homo sapiens, UniProt O60674); experiment: Kinobeads assay, JAK2; type: binding; details: mixed Molt4/Ramos lysate, read-out: Inhibition values (IC50) JAK2
T2 construct: endogenous in cells; host or cells: mixed Molt4/Ramos lysate (1:2)
T2 sequence (O60674 whole entry): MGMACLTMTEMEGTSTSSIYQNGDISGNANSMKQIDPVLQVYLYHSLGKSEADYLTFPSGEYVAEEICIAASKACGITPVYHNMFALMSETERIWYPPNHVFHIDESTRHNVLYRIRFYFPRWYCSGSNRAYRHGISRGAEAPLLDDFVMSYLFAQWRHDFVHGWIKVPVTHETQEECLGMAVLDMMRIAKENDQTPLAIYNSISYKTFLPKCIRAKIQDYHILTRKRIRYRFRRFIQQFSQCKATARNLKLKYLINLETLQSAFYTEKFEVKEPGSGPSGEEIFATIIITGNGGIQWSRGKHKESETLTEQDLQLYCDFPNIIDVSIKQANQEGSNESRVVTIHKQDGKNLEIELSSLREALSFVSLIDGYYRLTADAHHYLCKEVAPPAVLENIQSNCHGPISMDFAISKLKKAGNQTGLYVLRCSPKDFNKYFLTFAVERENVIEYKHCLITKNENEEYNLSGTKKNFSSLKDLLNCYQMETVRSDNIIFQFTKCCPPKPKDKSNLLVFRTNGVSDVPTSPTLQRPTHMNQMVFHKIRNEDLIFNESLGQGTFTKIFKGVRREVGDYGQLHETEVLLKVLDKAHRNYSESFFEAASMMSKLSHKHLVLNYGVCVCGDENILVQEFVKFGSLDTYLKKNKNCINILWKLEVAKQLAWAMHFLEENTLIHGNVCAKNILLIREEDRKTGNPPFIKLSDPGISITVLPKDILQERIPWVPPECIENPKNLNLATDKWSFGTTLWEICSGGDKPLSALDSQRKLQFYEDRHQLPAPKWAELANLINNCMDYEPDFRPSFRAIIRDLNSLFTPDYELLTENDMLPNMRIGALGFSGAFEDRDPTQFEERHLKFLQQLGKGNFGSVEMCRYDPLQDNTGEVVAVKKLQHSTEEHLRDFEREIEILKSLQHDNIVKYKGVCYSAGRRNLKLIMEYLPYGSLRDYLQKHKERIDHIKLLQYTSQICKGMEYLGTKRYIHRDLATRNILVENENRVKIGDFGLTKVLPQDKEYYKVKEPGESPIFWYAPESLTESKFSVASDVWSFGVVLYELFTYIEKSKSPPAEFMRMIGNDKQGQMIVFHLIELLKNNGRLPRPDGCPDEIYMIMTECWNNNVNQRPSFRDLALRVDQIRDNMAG
In short: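 IC50 values come from dose-response curves of JAK2/JAK3 captured on immobilized aminopyrido-pyrimidine beads, quantified by antibody dot blot with infrared read-out. Compounds (1:3 series, 9 steps, from 5 mM DMSO stock) competed for 3 h in the cold with mixed Molt4/Ramos lysate (1:2, 10 mg/mL protein).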

Row | Compound | JAK3/AurB Fold Selectivity (Aurora B) | IC50 (Aurora B) [µM] | IC50 (JAK2) [µM]
1 | CCCn1cc(-c2cccc(Cn3ncc4cnc(Nc5cnn(C)c5)nc43)c2)cn1 [Example 119, N-(1-methyl-1H-pyrazol-4-yl)-1-(3-(1-propyl-1H-pyrazol-4-yl)benzyl)-1H-pyrazolo[3,4-d]pyrimidin-6-amine] | >50 Fold | 1 to 10 | ≥ 10
2 | Cn1cc(Nc2ncc3cnn(Cc4cccc(-c5cnn(CC(N)=O)c5)c4)c3n2)cn1 [Example 120, 2-(4-(3-((6-((1-methyl-1H-pyrazol-4-yl)amino)-1H-pyrazolo[3,4-d]pyrimidin-1-yl)methyl)phenyl)-1H-pyrazol-1-yl)acetamide] | >50 Fold | 1 to 10 | 1 to 10
3 | Cn1cc(Nc2ncc3cnn(Cc4cccc(-c5cnn(CCO)c5)c4)c3n2)cn1 [Example 121, 2-(4-(3-((6-((1-methyl-1H-pyrazol-4-yl)amino)-1H-pyrazolo[3,4-d]pyrimidin-1-yl)methyl)phenyl)-1H-pyrazol-1-yl)ethanol] | 10-50 Fold | 1 to 10 | 1 to 10
4 | Cn1cc(-c2cccc(Cn3ncc4cnc(Nc5cnn(CCO)c5)nc43)c2)cn1 [Example 122, 2-(4-((1-(3-(1-methyl-1H-pyrazol-4-yl)benzyl)-1H-pyrazolo[3,4-d]pyrimidin-6-yl)amino)-1H-pyrazol-1-yl)ethanol] | >50 Fold | 0.1 to 1 | 1 to 10
5 | Cn1cc(Nc2ncc3cnn(Cc4cccc(-c5cnn(C)c5)c4F)c3n2)cn1 [Example 123, 1-(2-fluoro-3-(1-methyl-1H-pyrazol-4-yl)benzyl)-N-(1-methyl-1H-pyrazol-4-yl)-1H-pyrazolo[3,4-d]pyrimidin-6-amine] | >50 Fold | 1 to 10 | 1 to 10
6 | Cn1cc(-c2cccc(Cn3ncc4cnc(Nc5cnn(CCO)c5)nc43)c2F)cn1 [Example 124, 2-(4-((1-(2-fluoro-3-(1-methyl-1H-pyrazol-4-yl)benzyl)-1H-pyrazolo[3,4-d]pyrimidin-6-yl)amino)-1H-pyrazol-1-yl)ethanol] | 10-50 Fold | 0.1 to 1 | 1 to 10
7 | Cn1cc(Nc2ncc3cnn(Cc4cc(F)cc(-c5cnn(C)c5)c4)c3n2)cn1 [Example 125, 1-(3-fluoro-5-(1-methyl-1H-pyrazol-4-yl)benzyl)-N-(1-methyl-1H-pyrazol-4-yl)-1H-pyrazolo[3,4-d]pyrimidin-6-amine] | >50 Fold | 1 to 10 | 0.1 to 1
8 | Cn1cc(Nc2ncc3cnn(Cc4cc(-c5cnn(C)c5)cc(F)c4F)c3n2)cn1 [Example 126, 1-(2,3-difluoro-5-(1-methyl-1H-pyrazol-4-yl)benzyl)-N-(1-methyl-1H-pyrazol-4-yl)-1H-pyrazolo[3,4-d]pyrimidin-6-amine] | >50 Fold | ≥ 10 | ≥ 10
9 | Cn1cc(-c2cc(F)c(F)c(Cn3ncc4cnc(Nc5cnn(CCO)c5)nc43)c2)cn1 [Example 127, 2-(4-((1-(2,3-difluoro-5-(1-methyl-1H-pyrazol-4-yl)benzyl)-1H-pyrazolo[3,4-d]pyrimidin-6-yl)amino)-1H-pyrazol-1-yl)ethanol] | 10-50 Fold | 0.1 to 1 | 1 to 10
